SMILES strings stand for the structures.

Holding throughout (conditions): exposure: 6-8 hpf to 5 dpf, scored at 6 dpf
For assay [1], the system named is Danio rerio embryo/larva. The assay can be described thus: max % larvae with uninflated swim bladder across tested concentrations; higher = more toxic; extreme values may be limits of the assay.
The test system of assay [2] is Danio rerio embryo/larva. The assay can be described thus: BMC general abnormality; higher = less potent. The procedure: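 Zebrafish embryos (with chorion) were exposed from 6-8 hpf to each PFAS (8-point half-log series, top concentration up to 100 uM, 0.4% DMSO, sealed plates, 26 C; n = 6 embryos per concentration), rinsed at 5 dpf and scored at 6 dpf by two blinded observers for mortality, hatching and malformations. Endpoint scores are the % of living larvae affected (dead larvae excluded; […]). Curves were fitted with tcpl (cutoff 16%), and the BMC is the concentration at a benchmark response of 21.6%.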

The test system of assay [3] is Danio rerio embryo/larva. The assay can be described thus: max % larvae with tail defects across tested concentrations; higher = more toxic; extreme values may be limits of the assay.
Assay [4] deals with Danio rerio embryo/larva. The assay can be described thus: max % larvae with edema across tested concentrations; higher = more toxic; extreme values may be limits of the assay.
Assay [5] has as its system Danio rerio embryo/larva. The assay is described as follows: max % larvae with pigmentation defects across tested concentrations; higher = more toxic.
The test system of assay [6] is Danio rerio embryo/larva. The assay is described as follows: max % larvae generally abnormal across tested concentrations; higher = more toxic; extreme values may be limits of the assay.
The subject of assay [7] is Danio rerio embryo/larva. The assay can be described thus: max % larvae with blood pooling across tested concentrations; higher = more toxic; extreme values may be limits of the assay.
The test system of assay [8] is Danio rerio embryo/larva. The assay can be described thus: max % larvae with craniofacial defects across tested concentrations; higher = more toxic; extreme values may be limits of the assay.
The subject of assay [9] is Danio rerio embryo/larva. The assay is described as follows: max % larvae with abnormal position across tested concentrations; higher = more toxic; extreme values may be limits of the assay.
Assay [10] concerns Danio rerio embryo/larva. The assay is described as follows: max % larvae with spinal defects across tested concentrations; higher = more toxic; extreme values may be limits of the assay.

Consider `FC(F)(F)C(F)(F)C(F)(F)C(F)(F)C(F)(F)CCI` [1-Iodo-1H,1H,2H,2H-perfluoroheptane] (max tested concentration (log10 uM): 2), for which the max % larvae in the assay with Danio rerio embryo/larva [1] is 35.7%; in the assay with Danio rerio embryo/larva [3], 7.14%; in the assay on Danio rerio embryo/larva [4], 35.7%; in the assay on Danio rerio embryo/larva [5], 0%; in the assay on Danio rerio embryo/larva [7] it was 0%; with Danio rerio embryo/larva [8] it was 14.3%. Besides, the figures for the max % larvae in the assay with Danio rerio embryo/larva [9] and with Danio rerio embryo/larva [10] were 10.7% and 4.17%, respectively. In the assay with Danio rerio embryo/larva [2], the BMC general abnormality is 31.4 µM. In addition, the “max % larvae generally abnormal across tested concentrations” value in the assay on Danio rerio embryo/larva [6] worked out at 42.9%.

For the compound `C=CC(=O)OCC(F)(F)C(F)(F)C(F)(F)C(F)(F)COC(=O)C=C` [1H,1H,6H,6H-Perfluorohexane-1,6-diol diacrylate] (max tested concentration (log10 uM): 1), the max % larvae in the assay on Danio rerio embryo/larva [1] is 50%; in the assay on Danio rerio embryo/larva [3], 0%; with Danio rerio embryo/larva [4] it was 25%; with Danio rerio embryo/larva [5], 0%; in the assay on Danio rerio embryo/larva [7], 0%; in the assay with Danio rerio embryo/larva [8], 8.33%. For the same compound, the max % larvae turned out to be 4.17% in the assay with Danio rerio embryo/larva [9] and 0% with Danio rerio embryo/larva [10]. This compound also gave a BMC general abnormality in the assay on Danio rerio embryo/larva [2] of 7.57 µM. Further, the “max % larvae generally abnormal across tested concentrations” value in the assay on Danio rerio embryo/larva [6] is 25%.

`OCC(F)(F)C(F)(F)C(F)(F)C(F)(F)C(F)(F)C(F)(F)CO` [1H,1H,8H,8H-Perfluorooctane-1,8-diol] (max tested concentration (log10 uM): 2): the max % larvae in the assay on Danio rerio embryo/larva [1] worked out at 87.5%; with Danio rerio embryo/larva [3], 2.08%; with Danio rerio embryo/larva [4], 50%; in the assay on Danio rerio embryo/larva [5], 0%; with Danio rerio embryo/larva [7], 0%; with Danio rerio embryo/larva [8], 25%. For the same compound, the max % larvae in the assay with Danio rerio embryo/larva [9] and in the assay with Danio rerio embryo/larva [10] was 8.33% in each case. This compound also registered a BMC general abnormality in the assay with Danio rerio embryo/larva [2] of 50.1 µM. The “max % larvae generally abnormal across tested concentrations” value in the assay on Danio rerio embryo/larva [6] was determined as 52.1%.

In the case of `OCC(F)(F)C(F)(F)C(F)(F)C(F)(F)C(F)(F)C(F)(F)C(F)(F)C(F)(F)CO` [1H,1H,10H,10H-Perfluorodecane-1,10-diol] (max tested concentration (log10 uM): 1), the max % larvae amounted to 83.3% in the assay with Danio rerio embryo/larva [1]; 8.33% in the assay with Danio rerio embryo/larva [3]; 66.7% in the assay with Danio rerio embryo/larva [4]; 0% with Danio rerio embryo/larva [5]; 33.3% in the assay on Danio rerio embryo/larva [7]; 83.3% in the assay on Danio rerio embryo/larva [8]. Moreover, the max % larvae in the assay on Danio rerio embryo/larva [9] and with Danio rerio embryo/larva [10] was 4.17% in each case. Further, the BMC general abnormality in the assay with Danio rerio embryo/larva [2] was 3.79 µM. The “max % larvae generally abnormal across tested concentrations” value with Danio rerio embryo/larva [6] turned out to be 75%.

For the compound `C=CC(=O)OCCC(F)(F)C(F)(F)C(F)(F)C(F)(F)F` [2-(Perfluorobutyl)ethyl acrylate] (max tested concentration (log10 uM): 2), the max % larvae stood at 100% with Danio rerio embryo/larva [1]; 0% in the assay on Danio rerio embryo/larva [3]; 0% in the assay on Danio rerio embryo/larva [4]; 0% with Danio rerio embryo/larva [5]; 0% with Danio rerio embryo/larva [7]; 0% in the assay on Danio rerio embryo/larva [8]. Further, the max % larvae in the assay on Danio rerio embryo/larva [9] and in the assay on Danio rerio embryo/larva [10] was 0% in each case. The BMC general abnormality with Danio rerio embryo/larva [2] amounted to 74.8 µM. For the same compound, the “max % larvae generally abnormal across tested concentrations” value in the assay on Danio rerio embryo/larva [6] came out at 50%.

As to `OCCC(F)(F)C(F)(F)C(F)(F)C(F)(F)C(F)(F)C(F)(F)F` [2-(Perfluorohexyl)ethanol] (max tested concentration (log10 uM): 2), the max % larvae with Danio rerio embryo/larva [1] was determined as 81.8%; in the assay with Danio rerio embryo/larva [3], 13.6%; in the assay on Danio rerio embryo/larva [4], 79.5%; in the assay with Danio rerio embryo/larva [5] it was 0%; in the assay on Danio rerio embryo/larva [7], 0%; in the assay with Danio rerio embryo/larva [8] it was 68.2%. The results for the max % larvae in the assay with Danio rerio embryo/larva [9] and with Danio rerio embryo/larva [10] were 11.4% and 6.82%, respectively. Also, in the assay on Danio rerio embryo/larva [2], the BMC general abnormality worked out at 3.37 µM. Further, the “max % larvae generally abnormal across tested concentrations” value in the assay with Danio rerio embryo/larva [6] turned out to be 79.5%.

In the case of `O=C(O)CCC(F)(F)C(F)(F)C(F)(F)C(F)(F)C(F)(F)F` [2H,2H,3H,3H-Perfluorooctanoic acid] (max tested concentration (log10 uM): 1.47712), the max % larvae was 100% with Danio rerio embryo/larva [1]; 25% in the assay with Danio rerio embryo/larva [3]; 100% in the assay with Danio rerio embryo/larva [4]; 0% in the assay on Danio rerio embryo/larva [5]; 100% with Danio rerio embryo/larva [7]; 100% in the assay with Danio rerio embryo/larva [8]. The max % larvae amounted to 25% in the assay with Danio rerio embryo/larva [9] and 12.5% with Danio rerio embryo/larva [10]. Further, in the assay on Danio rerio embryo/larva [2], the BMC general abnormality is 9.38 µM. Further, the “max % larvae generally abnormal across tested concentrations” value in the assay on Danio rerio embryo/larva [6] was found to be 100%.

As to `O=C(O)CCC(F)(F)C(F)(F)C(F)(F)C(F)(F)C(F)(F)C(F)(F)F` [3-(Perfluorohexyl)propanoic acid] (max tested concentration (log10 uM): 1), the max % larvae worked out at 16.7% in the assay with Danio rerio embryo/larva [1]; 12.5% in the assay on Danio rerio embryo/larva [3]; 25% in the assay on Danio rerio embryo/larva [4]; 0% with Danio rerio embryo/larva [5]; 0% in the assay with Danio rerio embryo/larva [7]; 16.7% with Danio rerio embryo/larva [8]. The values for the max % larvae in the assay with Danio rerio embryo/larva [9] and with Danio rerio embryo/larva [10] were 4.17% and 0%, respectively. In addition, the BMC general abnormality with Danio rerio embryo/larva [2] stood at 9.01 µM. The “max % larvae generally abnormal across tested concentrations” value with Danio rerio embryo/larva [6] is 25%.

Regarding `OCCCC(F)(F)C(F)(F)C(F)(F)C(F)(F)C(F)(F)C(F)(F)C(F)(F)F` [7:3 Fluorotelomer alcohol] (max tested concentration (log10 uM): 2), the max % larvae in the assay with Danio rerio embryo/larva [1] was determined as 22.2%; in the assay on Danio rerio embryo/larva [3] it was 0%; in the assay with Danio rerio embryo/larva [4], 19.4%; in the assay with Danio rerio embryo/larva [5] it was 0%; in the assay with Danio rerio embryo/larva [7], 16.7%; in the assay on Danio rerio embryo/larva [8] it was 11.1%. Also, the max % larvae in the assay with Danio rerio embryo/larva [9] and in the assay with Danio rerio embryo/larva [10] was 0% in each case. For the same compound, the BMC general abnormality in the assay on Danio rerio embryo/larva [2] amounted to 44.8 µM. Also, the “max % larvae generally abnormal across tested concentrations” value in the assay on Danio rerio embryo/larva [6] amounted to 22.2%.

`O=C(O)C(F)(F)C(F)(F)C(F)(F)C(F)(F)C(F)(F)C(F)(F)C(F)(F)C(F)(F)Cl` [9-Chloro-perfluorononanoic acid] (max tested concentration (log10 uM): 2): the max % larvae stood at 100% with Danio rerio embryo/larva [1]; 75% in the assay on Danio rerio embryo/larva [3]; 100% with Danio rerio embryo/larva [4]; 0% with Danio rerio embryo/larva [5]; 41.7% in the assay with Danio rerio embryo/larva [7]; 100% in the assay on Danio rerio embryo/larva [8]. Further, the max % larvae in the assay with Danio rerio embryo/larva [9] came out at 25%; in the assay with Danio rerio embryo/larva [10] it was 50%. This compound also gave a BMC general abnormality in the assay on Danio rerio embryo/larva [2] of 9.23 µM. Further, the “max % larvae generally abnormal across tested concentrations” value in the assay with Danio rerio embryo/larva [6] stood at 100%.

`O=C(O)C(F)(F)C(F)(F)C(F)(F)C(F)(F)C(F)(F)C(F)(F)C(F)(F)C(F)(F)C(F)(F)C(F)F` [11-H-Perfluoroundecanoic acid] (max tested concentration (log10 uM): 1.47712): the max % larvae in the assay with Danio rerio embryo/larva [1] is 100%; in the assay on Danio rerio embryo/larva [3] it was 100%; in the assay with Danio rerio embryo/larva [4], 100%; in the assay on Danio rerio embryo/larva [5], 0%; in the assay on Danio rerio embryo/larva [7] it was 100%; in the assay with Danio rerio embryo/larva [8], 100%. The results for the max % larvae in the assay on Danio rerio embryo/larva [9] and with Danio rerio embryo/larva [10] were 50% and 0%, respectively. This compound registered a BMC general abnormality in the assay with Danio rerio embryo/larva [2] of 12.6 µM. Also, in the assay with Danio rerio embryo/larva [6], the “max % larvae generally abnormal across tested concentrations” value was found to be 100%.

As to `O=P(O)(O)CCC(F)(F)C(F)(F)C(F)(F)C(F)(F)C(F)(F)C(F)(F)C(F)(F)C(F)(F)F` [((Perfluorooctyl)ethyl)phosphonic acid] (max tested concentration (log10 uM): 2), the max % larvae with Danio rerio embryo/larva [1] stood at 100%; in the assay on Danio rerio embryo/larva [3] it was 5%; in the assay on Danio rerio embryo/larva [4], 50%; in the assay with Danio rerio embryo/larva [5], 0%; in the assay on Danio rerio embryo/larva [7], 0%; with Danio rerio embryo/larva [8], 20%. The max % larvae in the assay on Danio rerio embryo/larva [9] was 50%; in the assay with Danio rerio embryo/larva [10], 0%. In addition, the BMC general abnormality in the assay on Danio rerio embryo/larva [2] is 1.31 µM. The “max % larvae generally abnormal across tested concentrations” value with Danio rerio embryo/larva [6] turned out to be 60%.

Values taken from the supplement of paper PMC11281043.
